Experiments:
Ra3055 TM4 = target: T1, Ra3055 TM4 (Hominimerdicola alba, UniProt E9SHH5); assay: cellobiose release by HPAEC-PAD, Michaelis-Menten fit; type: biochemical; conditions: 0.01-30 mM cellotetraose, 10 min; pH and temperature of kinetics not stated
T1 construct: gene CUS_6909; GH9 catalytic domain only; pET-46, E. coli
Source text: cellobiose release by HPAEC-PAD, Michaelis-Menten fit on Ra3055 TM4

Ra3055 TM2 [1] = target: T2, Ra3055 TM2 (Hominimerdicola alba, UniProt E9SHH5); assay: as above; type: biochemical; conditions: 0.01-30 mM cellotetraose, 10 min; pH and temperature of kinetics not stated
T2 construct: gene CUS_6909; truncation without C-terminal CBM37 (CBM4_9 - Ig-like - GH9); pET-46, E. coli
T2 sequence (E9SHH5 entry or part of it): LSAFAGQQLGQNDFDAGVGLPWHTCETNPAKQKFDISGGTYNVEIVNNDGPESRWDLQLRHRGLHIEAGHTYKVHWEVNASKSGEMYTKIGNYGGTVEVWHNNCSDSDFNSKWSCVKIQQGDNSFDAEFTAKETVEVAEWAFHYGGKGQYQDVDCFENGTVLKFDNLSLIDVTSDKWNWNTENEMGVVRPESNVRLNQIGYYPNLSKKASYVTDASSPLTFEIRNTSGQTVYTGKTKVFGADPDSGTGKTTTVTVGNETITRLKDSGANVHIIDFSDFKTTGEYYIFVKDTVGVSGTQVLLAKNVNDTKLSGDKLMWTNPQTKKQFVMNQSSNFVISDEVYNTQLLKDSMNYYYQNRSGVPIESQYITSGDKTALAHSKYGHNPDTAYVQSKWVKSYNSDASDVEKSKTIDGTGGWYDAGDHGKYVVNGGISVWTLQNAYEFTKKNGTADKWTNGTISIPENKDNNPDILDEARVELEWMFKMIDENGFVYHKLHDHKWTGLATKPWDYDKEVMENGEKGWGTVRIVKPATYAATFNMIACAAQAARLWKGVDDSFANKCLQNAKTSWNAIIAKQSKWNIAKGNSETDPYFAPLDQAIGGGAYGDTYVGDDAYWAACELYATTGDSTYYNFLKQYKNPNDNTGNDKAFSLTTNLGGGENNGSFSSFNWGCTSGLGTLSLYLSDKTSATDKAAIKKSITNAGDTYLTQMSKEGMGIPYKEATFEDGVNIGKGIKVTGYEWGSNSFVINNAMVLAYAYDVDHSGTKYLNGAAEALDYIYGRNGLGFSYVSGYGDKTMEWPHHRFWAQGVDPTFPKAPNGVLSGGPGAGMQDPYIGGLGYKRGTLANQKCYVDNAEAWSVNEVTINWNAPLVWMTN
Source text: cellobiose release by HPAEC-PAD, Michaelis-Menten fit on Ra3055 TM2

Ra3055 TM1 [2] = target: T3, Ra3055 TM1 (Hominimerdicola alba, UniProt E9SHH5); assay: as above; type: biochemical; conditions: 0.01-30 mM cellotetraose, 10 min; pH and temperature of kinetics not stated
T3 construct: gene CUS_6909; truncation without N-terminal CBM4_9 (Ig-like - GH9 - CBM37); pET-46, E. coli
T3 sequence (E9SHH5 entry or part of it): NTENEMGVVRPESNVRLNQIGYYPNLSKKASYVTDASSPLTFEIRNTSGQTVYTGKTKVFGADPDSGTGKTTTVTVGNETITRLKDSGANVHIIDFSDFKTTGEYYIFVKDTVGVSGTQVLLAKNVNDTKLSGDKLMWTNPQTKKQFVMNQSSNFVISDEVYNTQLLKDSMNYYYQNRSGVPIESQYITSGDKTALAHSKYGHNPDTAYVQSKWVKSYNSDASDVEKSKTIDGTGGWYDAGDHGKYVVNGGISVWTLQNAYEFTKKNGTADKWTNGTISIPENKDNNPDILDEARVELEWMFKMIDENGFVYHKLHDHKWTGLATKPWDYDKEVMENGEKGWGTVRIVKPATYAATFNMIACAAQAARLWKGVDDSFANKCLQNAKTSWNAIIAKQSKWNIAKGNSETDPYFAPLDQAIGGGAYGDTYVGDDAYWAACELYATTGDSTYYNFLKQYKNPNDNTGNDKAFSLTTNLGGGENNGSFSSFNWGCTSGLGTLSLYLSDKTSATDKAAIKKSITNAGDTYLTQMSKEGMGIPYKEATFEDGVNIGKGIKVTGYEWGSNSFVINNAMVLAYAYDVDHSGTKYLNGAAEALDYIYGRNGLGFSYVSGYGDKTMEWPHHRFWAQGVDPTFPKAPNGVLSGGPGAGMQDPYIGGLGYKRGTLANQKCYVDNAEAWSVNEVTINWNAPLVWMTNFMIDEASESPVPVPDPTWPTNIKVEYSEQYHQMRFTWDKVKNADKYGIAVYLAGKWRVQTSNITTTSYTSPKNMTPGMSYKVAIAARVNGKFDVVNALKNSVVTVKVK
Source text: cellobiose release by HPAEC-PAD, Michaelis-Menten fit on Ra3055 TM1

Ra3055 TM3 [3] = target: T4, Ra3055 TM3 (Hominimerdicola alba, UniProt E9SHH5); assay: as above; type: biochemical; conditions: 0.01-30 mM cellotetraose, 10 min; pH and temperature of kinetics not stated
T4 construct: gene CUS_6909; truncation to Ig-like - GH9 (no CBM4_9, no CBM37); pET-46, E. coli
T4 sequence (E9SHH5 entry or part of it): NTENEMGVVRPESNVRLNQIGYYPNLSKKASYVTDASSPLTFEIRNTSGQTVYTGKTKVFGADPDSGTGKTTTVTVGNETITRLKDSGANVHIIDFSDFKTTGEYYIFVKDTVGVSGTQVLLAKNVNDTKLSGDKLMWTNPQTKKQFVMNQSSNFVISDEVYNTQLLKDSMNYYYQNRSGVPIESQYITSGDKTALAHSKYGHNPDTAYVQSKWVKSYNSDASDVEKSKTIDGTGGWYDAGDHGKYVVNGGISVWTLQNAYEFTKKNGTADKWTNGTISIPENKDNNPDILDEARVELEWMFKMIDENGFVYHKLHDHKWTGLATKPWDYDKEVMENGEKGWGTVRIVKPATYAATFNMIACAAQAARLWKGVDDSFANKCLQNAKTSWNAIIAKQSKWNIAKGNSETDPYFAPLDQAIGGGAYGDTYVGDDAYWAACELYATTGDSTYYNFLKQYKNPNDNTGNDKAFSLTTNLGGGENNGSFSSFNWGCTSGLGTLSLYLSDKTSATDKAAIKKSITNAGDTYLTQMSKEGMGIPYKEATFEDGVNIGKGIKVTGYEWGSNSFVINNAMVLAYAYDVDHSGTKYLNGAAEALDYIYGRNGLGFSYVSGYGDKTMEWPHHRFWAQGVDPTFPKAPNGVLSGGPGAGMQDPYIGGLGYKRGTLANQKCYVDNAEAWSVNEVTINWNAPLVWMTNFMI
Source text: cellobiose release by HPAEC-PAD, Michaelis-Menten fit on Ra3055 TM3

Ra3055 (WT) = target: T5, Ra3055 (WT) (Hominimerdicola alba, UniProt E9SHH5); assay: isothermal titration calorimetry; type: binding; conditions: 50 mM sodium phosphate, 150 mM NaCl, pH 7.5; single-site fit
T5 construct: gene CUS_6909; full-length multimodular CBM4_9 - Ig-like - GH9 - CBM37
T5 sequence (E9SHH5 entry or part of it): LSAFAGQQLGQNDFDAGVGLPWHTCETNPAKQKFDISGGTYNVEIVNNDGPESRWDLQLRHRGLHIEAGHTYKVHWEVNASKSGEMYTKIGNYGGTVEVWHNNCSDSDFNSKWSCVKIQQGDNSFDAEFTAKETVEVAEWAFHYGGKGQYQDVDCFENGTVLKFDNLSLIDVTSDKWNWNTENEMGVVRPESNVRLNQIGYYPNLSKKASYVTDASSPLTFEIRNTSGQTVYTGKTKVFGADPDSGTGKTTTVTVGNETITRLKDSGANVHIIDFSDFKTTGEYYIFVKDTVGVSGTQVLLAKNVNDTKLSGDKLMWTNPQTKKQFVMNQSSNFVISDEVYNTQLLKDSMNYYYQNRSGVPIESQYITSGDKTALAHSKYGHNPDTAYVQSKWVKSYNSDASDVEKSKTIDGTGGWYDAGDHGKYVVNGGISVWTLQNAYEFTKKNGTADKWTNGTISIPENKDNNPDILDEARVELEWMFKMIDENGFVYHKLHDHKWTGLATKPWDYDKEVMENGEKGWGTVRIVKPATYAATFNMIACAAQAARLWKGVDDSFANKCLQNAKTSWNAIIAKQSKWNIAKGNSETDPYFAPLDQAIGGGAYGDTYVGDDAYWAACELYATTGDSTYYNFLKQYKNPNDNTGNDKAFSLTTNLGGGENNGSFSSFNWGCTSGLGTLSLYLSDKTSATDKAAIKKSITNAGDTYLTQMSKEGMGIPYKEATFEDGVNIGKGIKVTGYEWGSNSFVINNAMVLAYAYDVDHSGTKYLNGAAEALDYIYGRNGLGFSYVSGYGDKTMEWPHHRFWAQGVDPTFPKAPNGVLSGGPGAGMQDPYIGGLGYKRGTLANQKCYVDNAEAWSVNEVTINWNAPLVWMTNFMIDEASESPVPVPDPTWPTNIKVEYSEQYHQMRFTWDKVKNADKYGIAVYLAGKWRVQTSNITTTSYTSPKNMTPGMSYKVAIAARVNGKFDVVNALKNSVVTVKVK

Ra3055 TM2 [4] = target: T2, Ra3055 TM2; assay: isothermal titration calorimetry; type: binding; conditions: 50 mM sodium phosphate, 150 mM NaCl, pH 7.5; single-site fit
Ra3055 TM3 [5] = target: T4, Ra3055 TM3; assay: isothermal titration calorimetry; type: binding; conditions: 50 mM sodium phosphate, 150 mM NaCl, pH 7.5; single-site fit
Ra3055 TM1 [6] = target: T3, Ra3055 TM1; assay: isothermal titration calorimetry; type: binding; conditions: 50 mM sodium phosphate, 150 mM NaCl, pH 7.5; single-site fit

T1 sequence (E9SHH5 entry or part of it): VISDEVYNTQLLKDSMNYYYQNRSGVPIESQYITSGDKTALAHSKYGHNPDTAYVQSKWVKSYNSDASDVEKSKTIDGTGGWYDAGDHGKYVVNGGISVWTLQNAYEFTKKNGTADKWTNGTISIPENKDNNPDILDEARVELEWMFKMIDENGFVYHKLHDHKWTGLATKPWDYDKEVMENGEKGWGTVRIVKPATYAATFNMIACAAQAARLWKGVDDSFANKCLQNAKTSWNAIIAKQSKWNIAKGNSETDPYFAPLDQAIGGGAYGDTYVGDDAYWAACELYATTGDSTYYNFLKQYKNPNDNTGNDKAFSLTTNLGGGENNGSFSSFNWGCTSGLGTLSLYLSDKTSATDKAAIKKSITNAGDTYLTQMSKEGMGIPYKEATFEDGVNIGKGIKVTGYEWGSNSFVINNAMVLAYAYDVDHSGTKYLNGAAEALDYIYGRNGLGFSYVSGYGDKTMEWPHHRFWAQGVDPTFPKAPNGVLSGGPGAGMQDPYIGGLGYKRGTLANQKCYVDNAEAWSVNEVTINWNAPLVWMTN

Structure (SMILES) | Km (Ra3055 TM4) | Km (Ra3055 TM2 [1]) | Km (Ra3055 TM1 [2]) | Km (Ra3055 TM3 [3]) | Ka (Ra3055 (WT)) | Ka (Ra3055 TM2 [4]) | Ka (Ra3055 TM3 [5]) | Ka (Ra3055 TM1 [6])
OC[C@H]1O[C@@H](O[C@H]2[C@H](O)[C@@H](O)[C@H](O[C@H]3[C@H](O)[C@@H](O)[C@H](O[C@H]4[C@H](O)[C@@H](O)C(O)O[C@@H]4CO)O[C@@H]3CO)O[C@@H]2CO)[C@H](O)[C@@H](O)[C@@H]1O (some centres unmarked) [G4, cellotetraose] | 7.9 ± 3.6 mM | 5.6 ± 0.9 mM | 4.5 ± 0.3 mM | 2.9 ± 0.1 mM | – | – | – | –
OC[C@H]1O[C@@H](O[C@H]2[C@H](O)[C@@H](O)[C@H](O[C@H]3[C@H](O)[C@@H](O)[C@H](O[C@H]4[C@H](O)[C@@H](O)[C@H](O[C@H]5[C@H](O)[C@@H](O)C(O)O[C@@H]5CO)O[C@@H]4CO)O[C@@H]3CO)O[C@@H]2CO)[C@H](O)[C@@H](O)[C@@H]1O (some centres unmarked) [G5, cellopentaose] | – | – | – | – | 2.94E4±7.38E3 | 3.49E4±4.59E3 | 5.06E5±4.41E4 | 6.38E5±1.57E5

— article PMC5066209, “Multiple cellobiohydrolases and cellobiose phosphorylases cooperate in the ruminal bacterium Ruminococcus albus 8 to degrade cellooligosaccharides” (Scientific Reports, 2016)
